Entries after “also recorded” stand apart in the source; their conditions may differ. Where two headings read alike, the source gives them in different places.
Tests used:
[1] = system: tumours or human tumour xenografts; conditions: preclinical studies; cited from earlier work
colon 38 tumours = assay: Tumour growth delay assay; assay type: in vivo, C57B1/6 mice
Protocol: C57B1/6 mice from the Animal Resource Unit, University of Auckland, were bred and housed under conditions of constant temperature and humidity, with sterile bedding and food, according to institutional ethical guidelines. All mice were aged between 8 and 12 weeks.
(§1) DMXAA was synthesized as the sodium salt (Rewcastle et al (1990) Journal of National Cancer Institute 82:528-529). DMXAA sodium salt was dissolved in sterile water and 25 mg/kg in a volume of 0.1 ml per 10 g body weight was injected intraperitoneally (i.p.) into mice.
Diclofenac (Sigma) was dissolved in dimethylsulphoxide, and was injected i.p. into mice in a volume of 25 μl per 10 g body weight. […]
Colon 38 tumour fragments (˜1 mm^3) were implanted subcutaneously (s.c.) in the left flank of anaesthetized (sodium pentobarbital, 81 mg/kg) mice. […] Tumour-bearing mice were treated with drugs according to the administration schedule described before, and the tumours measured using calipers, three times weekly thereafter. Tumour volumes were calculated as 0.52a^2b, where a and b are the minor and major axes of the tumour, respectively. The arithmetic means were calculated for each time point, counting cured tumours as zero volume. The growth delay was determined as the difference in the number of days required for the control versus treated tumours to increase four times in volume. […]

human tumours = conditions: Phase I clinical trials; well-tolerated doses; cited from earlier work
[2] = DMXAA plasma pharmacokinetic studies (HPLC assay); assay type: in vivo, mice
Protocol: as §1
Diclofenac (Sigma) was dissolved in dimethylsulphoxide, and was injected i.p. into mice in a volume of 25 μl per 10 g body weight. The required dose of diclofenac was injected concurrently with DMXAA.

[3] = system: 6-methylhydroxylation of DMXAA; conditions: diclofenac 100 μM; mouse and human microsomes; cited from earlier work
glucoronidation of DMXAA = conditions: diclofenac 100 μM; mouse and human microsomes; cited from earlier work
[4] = cited from earlier work

Row | AUC ([2]; mouse, plasma, ip, 0-6 hours, DMXAA 25 mg/kg i.p. alone or with diclofenac 5 mg/kg) [µM·h] | half-life ([2]; mouse, plasma, ip, DMXAA 25 mg/kg i.p. alone or with diclofenac 5 mg/kg) [h] | effect on DMXAA plasma concentrations ([2]; 3 hours after administration, DMXAA 25 mg/kg with diclofenac doses below 100 mg/kg) | SMILES | tumour blood flow [1] | mice cured (colon 38 tumours; s.c. colon 38 tumours, DMXAA 25 mg/kg alone or with diclofenac 5 mg/kg i.p., 5 mice per group) | tumour blood flow (dynamic MRI) (human tumours) | inhibition of 6-methylhydroxylation of DMXAA [3] [%] | effect on the growth of colon 38 tumours (colon 38 tumours; diclofenac alone 5 mg/kg i.p.) | inhibition of glucoronidation of DMXAA (glucoronidation of DMXAA) [%] | increase in the plasma DMXAA AUC ([4]; diclofenac 100 mg/kg i.p., female mice) [%] | increase in DMXAA T1/2 ([4]; diclofenac 100 mg/kg i.p., male and female mice, P<0.05) | increase in the plasma DMXAA AUC ([4]; diclofenac 100 mg/kg i.p., male mice) [%] | increase in the plasma concentration and AUC of DMXAA ([4]; diclofenac 100 mg/kg, mice)
1 | 1330 | 2.7 | – | Cc1ccc2c(=O)c3cccc(CC(=O)O)c3oc2c1C [DMXAA, 5,6-dimethylxanthenone-4-acetic acid] | prolonged inhibition of tumour blood flow | none of the mice were cured; also recorded: no cure | significant reduction in tumour blood flow | – | – | – | – | – | – | –
2 | – | – | no significant effect | O=C(O)Cc1ccccc1Nc1c(Cl)cccc1Cl [diclofenac, 2-[(2,6-dichlorophenyl)amino]benzeneacetic acid] | – | – | – | > 54 | no significant effect | > 70 | 31 | threefold increase | 24 | 24-31%
